{"source": "patent US20050037926A1", "about": "“Pesticide preparations containing copolymers” (priority 2001, published 2005)", "format_in_all_cases": "in vivo", "conditions_in_all_cases": "600 g copolymer where named, 300 l/ha, 21 days at 20° C.", "key": {"[1]": {"tested_on": "Abutilon theophrasti (ABUTH)", "assay": "Greenhouse herbicidal action of glyphosate test formulations", "procedure": "(§1) Test formulations were prepared with in each case 200 g, 300 g and 500 g of glyphosate and in each case 600 g of the copolymers I to V in 300 l of water. The data by weight refer to 100% active ingredient and 100% adjuvant. An amount of the formulation corresponding to the ratio 300 l/ha was applied in a greenhouse to the plant species Abutilon theophrasti (ABUTH), Sesbania exaltata (SEBEX), Pharbitis purpurea (PHBPU), Galium aparine (GALAP), Amaranthus retroflexus (AMARE) and Echinochloa crus-galli (ECHCG), and, after 21 days at 20° C., the plant growth was assessed according to a % scale.\n(§2) 0% means no effect and 100% means complete destruction of the types of plant."}, "[2]": {"tested_on": "Amaranthus retroflexus (AMARE)", "assay": "Greenhouse herbicidal action of glyphosate test formulations", "procedure": "as §1, §2"}, "[3]": {"tested_on": "Echinochloa crus-galli (ECHCG)", "assay": "Greenhouse herbicidal action of glyphosate test formulations", "procedure": "as §1, §2"}, "Galium aparine (GALAP)": {"tested_on": "Galium aparine (GALAP)", "assay": "Greenhouse herbicidal action of glyphosate test formulations", "procedure": "as §1, §2"}, "[4]": {"tested_on": "Pharbitis purpurea (PHBPU)", "assay": "Greenhouse herbicidal action of glyphosate test formulations", "procedure": "as §1, §2"}, "[5]": {"tested_on": "Sesbania exaltata (SEBEX)", "assay": "Greenhouse herbicidal action of glyphosate test formulations", "procedure": "as §1, §2"}, "[6]": {"tested_on": "SEBEX, AMARE, GALAP, ABUTH, ECHCG, PHBPU", "assay": "Greenhouse herbicidal action, total over the six plant species", "procedure": "as §1, §2"}}}
{"smiles": "O=C(O)CNCP(=O)(O)O", "note": "[Glyphosate, N-phosphonomethylglycine]", "values": [{"measurement": "herbicidal action ABUTH (plant growth assessed on % scale)", "setting": "[1]; glyphosate 200 g/ha", "result": 0, "unit": "%"}, {"measurement": "herbicidal action ABUTH (plant growth assessed on % scale)", "setting": "[1]; glyphosate 300 g/ha", "result": 10, "unit": "%"}, {"measurement": "herbicidal action ABUTH (plant growth assessed on % scale)", "setting": "[1]; glyphosate 500 g/ha", "result": 15, "unit": "%"}, {"measurement": "herbicidal action AMARE (plant growth assessed on % scale)", "setting": "[2]; glyphosate 200 g/ha", "result": 20, "unit": "%"}, {"measurement": "herbicidal action AMARE (plant growth assessed on % scale)", "setting": "[2]; glyphosate 300 g/ha", "result": 45, "unit": "%"}, {"measurement": "herbicidal action AMARE (plant growth assessed on % scale)", "setting": "[2]; glyphosate 500 g/ha", "result": 65, "unit": "%"}, {"measurement": "herbicidal action ECHCG (plant growth assessed on % scale)", "setting": "[3]; glyphosate 200 g/ha", "result": 15, "unit": "%"}, {"measurement": "herbicidal action ECHCG (plant growth assessed on % scale)", "setting": "[3]; glyphosate 300 g/ha", "result": 20, "unit": "%"}, {"measurement": "herbicidal action ECHCG (plant growth assessed on % scale)", "setting": "[3]; glyphosate 500 g/ha", "result": 40, "unit": "%"}, {"measurement": "herbicidal action GALAP (plant growth assessed on % scale)", "setting": "Galium aparine (GALAP); glyphosate 200 g/ha", "result": 5, "unit": "%"}, {"measurement": "herbicidal action GALAP (plant growth assessed on % scale)", "setting": "Galium aparine (GALAP); glyphosate 300 g/ha", "result": 20, "unit": "%"}, {"measurement": "herbicidal action GALAP (plant growth assessed on % scale)", "setting": "Galium aparine (GALAP); glyphosate 500 g/ha", "result": 40, "unit": "%"}, {"measurement": "herbicidal action PHBPU (plant growth assessed on % scale)", "setting": "[4]; glyphosate 200 g/ha", "result": 10, "unit": "%"}, {"measurement": "herbicidal action PHBPU (plant growth assessed on % scale)", "setting": "[4]; glyphosate 300 g/ha", "result": 20, "unit": "%"}, {"measurement": "herbicidal action PHBPU (plant growth assessed on % scale)", "setting": "[4]; glyphosate 500 g/ha", "result": 40, "unit": "%"}, {"measurement": "herbicidal action SEBEX (plant growth assessed on % scale)", "setting": "[5]; glyphosate 200 g/ha, 0% no effect, 100% complete destruction", "result": 10, "unit": "%"}, {"measurement": "herbicidal action SEBEX (plant growth assessed on % scale)", "setting": "[5]; glyphosate 300 g/ha", "result": 15, "unit": "%"}, {"measurement": "herbicidal action SEBEX (plant growth assessed on % scale)", "setting": "[5]; glyphosate 500 g/ha", "result": 30, "unit": "%"}, {"measurement": "herbicidal action Total", "setting": "[6]; glyphosate 200 g/ha", "result": 10, "unit": "%"}, {"measurement": "herbicidal action Total", "setting": "[6]; glyphosate 300 g/ha", "result": 22, "unit": "%"}, {"measurement": "herbicidal action Total", "setting": "[6]; glyphosate 500 g/ha", "result": 38, "unit": "%"}]}
